Consider five substances from patent US20220170028A1, “NOVEL INTERLEUKIN-2 VARIANTS AND BIFUNCTIONAL FUSION MOLECULES THEREOF” (Cugene Inc, priority 2019, published 2022).

Entries after “also recorded” stand apart in the source; their conditions may differ.

Experiment [1] relates to Treg cells. As to the kind of experiment: Treg pharmacodynamics in mice after repeated administration Q3D (Example 11). The following applies: 0.3 mg/kg s.c. It is filed as in vivo, mouse. The method, then: Female Balb/C mice (7-week old) were acclimated in house for 5-7 days before the study. Vehicle (PBS), 0.3 mg/kg of P-0511, P-0512, P-0531, or Benchmark-1 compound were subcutaneously administered to mice (n=5/group) on days 0, 3, and 6. On days 3 and 9, three days after the first injection and multiple (3) injections, respectively, peripheral blood was collected. Based on earlier in vivo experiments, Treg cell activation, proliferation, and expansion were expected to peak on day 3, and thus three days post injection was selected for data collection and analysis. Changes in blood lymphocyte activation, proliferation, and expansion were measured by flow cytometry. P-0531 is the S125I equivalent of the wild type IL-2 fusion protein. The Benchmark-1 contains V91K mutation.

The subject of experiment [2] is Treg cells. The experiment can be described thus: Treg proliferation and expansion in mice after a single subcutaneous injection (Example 9). Format: in vivo, mouse. The note with it: 0.3 mg/kg single s.c., C57/BL6 mice. The method, then: (§1) IL-2 variant Fc fusion proteins were administered to mice and their ability to preferentially proliferate and expand regulatory T cells (CD4+CD25+FoxP3+ T cells) over effector T cells and NK cells were determined in vivo.
(§2) Female C57/BL6 mice (7-week old) were received from Charles River Laboratory and acclimated in house for at least 7 days before the study. Vehicle (PBS), 0.3 mg/kg of each test compounds, or IL-2 benchmark compounds were subcutaneously administered to mice on day 0. Peripheral blood samples were collected into heparin-treated tubes on days 3, 5 and 7 post-treatment. Each group contained 6 mice and baseline blood was collected 2 days prior to the treatment (day −2). After red blood cell lysis, total viable mononuclear blood cells were counted by trypan blue dead cell exclusion method and proceeded to intracellular staining for immune cell phenotype and Ki67 proliferation markers using flow cytometric analysis. Cells were stained separately with two panels of antibodies as listed: 1) anti-mouse Foxp3-FITC, Ki67-PE, anti-mouse CD25-APC and anti-mouse CD4-Percpcy5.5 (1:50 dilution) for CD4+T-regulatory cells (Treg); 2) anti-mouse CD3-FITC, Ki67-PE, anti-mouse CD335-APC and anti-mouse CD8-Percpcy5.5 (1:50 dilution) for CD8+T and NK cells.

The test system of experiment [3] is CD4+ Treg vs CD4+ Tconv cells. The experiment can be described thus: STAT5 phosphorylation, selectivity / activity profile Treg versus CD4+ Tconv cells, human PBMC. Format: cell-based. In outline:
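Fresh human PBMC from a healthy donor, serum-starved 1 h at 4 °C, then exposed to serial dilutions of IL-2 variants for 30 min at 37 °C. After fixation/permeabilization, cells stained for CD4, CD25, FOXP3 and pSTAT5 and analysed by flow cytometry. Treg (CD4+/Foxp3+/CD25high) and Tconv (CD4+/Foxp3−/CD25low) gated; read-out is percent pSTAT5-positive cells.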

In experiment [4] the test system is NK cells. As to the kind of experiment: NK cell proliferation, CFSE dilution, human PBMC. It is filed as cell-based. The note with it: 5 or 7 days incubation. Here is the method: (§3) Further, P-0511 and P-0512 were tested for their ability to stimulate NK and CD8+ T cells proliferation in comparison with the wild type and benchmark molecules. Intracellular fluorescent label carboxyfluorescein diacetate succinimidyl ester (CFSE) method was utilized. Briefly, human PBMC (1×10^5 cells/well) were labeled with CFSE, plated onto 96-well plates, and incubated with increasing concentrations of different IL-2 compounds. Cells were then harvested after 5 or 7 days of incubation and stained with either anti-CD56-APC antibody for NK cells or anti-CD8-APC antibody for CD8+ T cells; and analyzed by flow cytometry. Data are expressed as a percent of divided cells and illustrated in FIG. 10A for CD8+ T cell proliferation and FIG. 10B for NK cell proliferation.

Experiment [5] has as its system CD8+ T cells. As to the kind of experiment: CD8+ T cell proliferation, CFSE dilution, human PBMC. The note with it: 5 or 7 days incubation. Format: cell-based. The method, then:
as §3

The test system of experiment [6] is CD4+ Tconv cells, CD8 T cells and NK cells. The experiment can be described thus: Effector T cell and NK cell proliferation and expansion in mice after a single subcutaneous injection (Example 9). Format: in vivo, mouse. The note with it: 0.3 mg/kg single s.c., C57/BL6 mice. Here is the method: as §1, §2
Experiment [7] has as its system CD4+/Foxp3+/CD25+ Treg, CD4+/Foxp3-/CD25+ Teff and CD4+/Foxp3-/CD25- naive T cells. The experiment can be described thus: STAT5 phosphorylation in three CD4+ T cell subsets (Treg, CD4 effector, CD4 naive), human PBMC. It is filed as cell-based. The source says: In addition to being assessed for their ability to differentially stimulate Stat5 phosphorylation in CD4 positive Treg (CD4+/Foxp3+/CD25^high) versus Tconv (CD4+/Foxp3−/CD25^low) cells, two variants, P-0511 and P-0512, were further assayed for their ability to stimulate other effector T and NK cells, including CD4 positive Teff (CD4+/Foxp3-/CD25+), CD8 cytotoxic T effector and NK cells in comparison to wild-type IL-2 (P-0250) and three IL-2 benchmark molecules containing V91K, N88R, N88D respectively.
After human PBMC Cells were treated with serial dilutions of test compounds, fixed and permeabilized, washed, and stained with a mixture of anti-CD25-PE, anti-FOXP3-APC, anti-pSTAT5-FITC, and anti-CD4-PerCP-Cy5.5 antibodies, the flow cytometry analysis was gated into CD4+/Foxp3+/CD25+, CD4+/Foxp3−/CD25+, CD4+/Foxp3−/CD25− groups for the Treg, CD4 effector, and CD4 naive T cell subsets, respectively. Data are expressed as a percent of pStat5 positive cells in gated population and illustrated in FIG. 9.

In experiment [8] the test system is CD4+ Tconv, activated CD4+ T, CD8+ T and NK cells. The experiment can be described thus: Effector T cell and NK cell proliferation and expansion in mice, bifunctional constructs (Example 17). It is filed as in vivo, mouse. The following applies: 15 nmol/kg single s.c. The method, then: (§4) IL-2 variant tocilizumab bifunctional proteins P-0536, P-0546, P-0559, and P-0560 along with IL-2 variant Fc fusion protein P-0511 were administered to mice, and their ability to preferentially proliferate and expand regulatory T cells (CD4+CD25+FoxP3+ T cells) over effector T cells and NK cells were determined in vivo.
(§5) Female C57/BL6 mice (7-week old) were received from Charles River Laboratory and acclimated in house for at least 7 days before the study. Vehicle (PBS) and 15 nmol/kg each test compounds were subcutaneously administered to mice on day 0. Peripheral blood samples were collected into heparin-treated tubes on days 2, 4 and 8 post-treatment. Each group contained 5 mice and baseline blood was collected 3 days prior to the treatment (day −3).

Experiment [9] relates to Treg cells. The experiment can be described thus: Treg proliferation and expansion in mice after a single s.c. injection of bifunctional constructs (Example 17). Format: in vivo, mouse. The following applies: 15 nmol/kg single s.c.; for potency in inducing Treg cell proliferation and expansion in vivo (in words): C57/BL6 mice. Here is the method: as §4, §5
A further experiment concerns CD4+ T cells. The experiment can be described thus: Ki67 expression on CD4+ T cells, human PBMC, flow cytometry. Format: cell-based. The source says: (§6) Exemplary IL-2 variant Fc fusion protein P-0573 was further characterized for induction of Ki-67 expression by flow cytometry.
Experiment [10] deals with CD8+ T cells. The experiment can be described thus: Ki67 expression on CD8+ T cells, human PBMC, flow cytometry. Format: cell-based.
Source text: as §6
Background: A flow cytometer gives signals particle by particle.

For experiment [11], the system named is NK cells. As to the kind of experiment: Ki67 expression on NK cells, human PBMC, flow cytometry. It is filed as cell-based.
Source text: as §6

In the case of “P-0512: IL-2 L19H/S125I/Q126K Fc fusion, SEQ ID NO: 214”, in the experiment on Treg cells [1] (after three consecutive Q3D treatments), the “% Treg over total CD4 T cells or over total lymphocytes” value is “sustained at significantly high levels”. In the experiment on Treg cells [1] (repeated dosing Q3D), the “Treg cell counts, fold changes relative to PBS and Treg/Tconv ratio” value is “superior capabilities to sustain Treg pool and maintain Treg selectivity”. Also, the “Treg/Tconv ratio (Ki67 stimulation and cell counts)” value in the experiment on Treg cells [2] (all measured time points) is reported as “most beneficial Treg/Tconv ratio”. Also, in the experiment with Treg cells [2] (days 3, 5, 7), the “stimulation of Treg cell proliferation and expansion in vivo (in words)” value is listed as “stronger in vivo efficacy”. Besides, the “Treg Selectivity” value in experiment [3] (Isoleucine-125 constructs) is given as “Yes”. For the same substance, in the experiment on NK cells [4], the “potency in stimulating NK cell proliferation (in words)” value is listed as “comparable activity profile to Benchmark-1”. For the same substance, the “potency in stimulating CD8+ T cell proliferation (in words)” value in the experiment with CD8+ T cells [5] is listed as “comparable activity profile to Benchmark-1”. In addition, in [6], the “Ki67 stimulation on CD8 T cells and NK cells in vivo (in words)” value is reported as “mild Ki67 stimulation”; the “expansion of CD4+ Tconv cells, CD8 T cells or NK cells in vivo” value is “No significant expansion”. Also, in [7], the “pSTAT5 activity profile in Treg, Teff and naive CD4 T cell subsets (in words)” value is “comparable activity profile to Benchmark-1”.

Take “P-0546: Tocilizumab IL-2 L19H/S125I/Q126E monovalent fusion, SEQ ID NOs 253 + 254 + 256”: the “change of the activated CD4+ T cells” value in [8] is reported as “slight increase”. Moreover, in the experiment with Treg cells [9], the “Treg/Tconv ratio (Ki67 stimulation, cell counts)” value is “most beneficial Treg/Tconv ratio”; the “expression of CD25 and Foxp3 on Treg cells” value was “highest expression of CD25”; the “potency in inducing Treg cell proliferation and expansion in vivo (in words)” value is “highest potency”.

Turning to “P-0560: Tocilizumab IL-2 D20Q/S125I monovalent fusion, SEQ ID NOs 253 + 254 + 266”, the “change of the activated CD4+ T cells” value in [8] is reported as “slight increase”. Also, in the experiment on Treg cells [9], the “Treg/Tconv ratio (Ki67 stimulation, cell counts)” value was “most beneficial Treg/Tconv ratio”; the “expression of CD25 and Foxp3 on Treg cells” value is recorded as “highest expression of CD25”; the “potency in inducing Treg cell proliferation and expansion in vivo (in words)” value was “highest potency”. Further, the “activity profile / selectivity window Treg over CD4+ Tconv (in words)” value in [3] was “selective activation of Treg cells over CD4+ Tconv cells”.

On to “P-0573: IL-2 R38A/P65G/S125I Fc fusion, SEQ ID NO: 247”, for which, in the experiment on CD4+ T cells, the “induction of Ki67 expression in CD4+ T cells” value was “substantially reduced potency; also recorded: higher potency than Benchmark-4”. The “induction of Ki67 expression in CD8+ T cells” value in the experiment on CD8+ T cells [10] is “equally effective”. Moreover, the “induction of Ki67 expression in NK cells” value with NK cells [11] is recorded as “equally effective”.

As for “Benchmark-4: benchmark Fc-IL-2 fusion with IL-2Rα-disrupting triple mutations F42A/Y45A/L72G, SEQ ID NO: 250 [reference compound]”, in the experiment with CD8+ T cells [10], the “induction of Ki67 expression in CD8+ T cells” value was “equally effective”. The “induction of Ki67 expression in NK cells” value with NK cells [11] was “equally effective”.
